Test results as given in ChEMBL document CHEMBL1687921, “Natural product-based phenols as novel probes for mycobacterial and fungal carbonic anhydrases” (J Med Chem, 2011).
pKi: −log10 of the molar value.

Key:
Carbonic anhydrase 1 = Carbonic anhydrase 1 (Homo sapiens, UniProt P00915)
Description: Inhibition of human recombinant alpha-carbonic anhydrase 1 after 15 mins by stopped flow CO2 hydration assay

Carbonic anhydrase 2 [1] = biological target: Carbonic anhydrase 2 (Homo sapiens, UniProt P00918)
Description: Inhibition of human recombinant alpha-carbonic anhydrase 2 after 15 mins by stopped flow CO2 hydration assay

Carbonic anhydrase 2 [2] = biological target: T1, Carbonic anhydrase 2 (Cryptococcus neoformans, UniProt Q3I4V7)
T1 sequence (Q3I4V7 whole entry): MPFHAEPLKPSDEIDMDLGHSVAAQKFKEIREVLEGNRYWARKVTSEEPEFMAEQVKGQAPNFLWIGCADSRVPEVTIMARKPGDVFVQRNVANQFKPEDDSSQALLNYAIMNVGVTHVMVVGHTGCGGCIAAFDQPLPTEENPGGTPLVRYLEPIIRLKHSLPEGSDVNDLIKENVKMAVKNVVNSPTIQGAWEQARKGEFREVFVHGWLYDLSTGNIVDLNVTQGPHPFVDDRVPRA
Description: Inhibition of Cryptococcus neoformans recombinant Can2 beta-carbonic anhydrase after 15 mins by stopped flow CO2 hydration assay

[3] = biological target: T2, Beta-carbonic anhydrase 1 (Mycobacterium tuberculosis, UniProt P9WPJ7)
T2 sequence (P9WPJ7 whole entry): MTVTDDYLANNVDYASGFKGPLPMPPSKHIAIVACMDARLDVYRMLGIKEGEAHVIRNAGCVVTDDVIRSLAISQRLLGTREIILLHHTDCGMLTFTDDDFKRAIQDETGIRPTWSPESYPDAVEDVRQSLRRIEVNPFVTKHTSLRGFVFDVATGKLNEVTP
Description: Inhibition of Mycobacterium tuberculosis recombinant Rv1284 beta-carbonic anhydrase after 15 mins by stopped flow CO2 hydration assay

[4] = biological target: T3, PROBABLE TRANSMEMBRANE CARBONIC ANHYDRASE (CARBONATE DEHYDRATASE) (CARBONIC DEHYDRATASE) (Mycobacterium tuberculosis, UniProt P96878)
T3 sequence (P96878 whole entry): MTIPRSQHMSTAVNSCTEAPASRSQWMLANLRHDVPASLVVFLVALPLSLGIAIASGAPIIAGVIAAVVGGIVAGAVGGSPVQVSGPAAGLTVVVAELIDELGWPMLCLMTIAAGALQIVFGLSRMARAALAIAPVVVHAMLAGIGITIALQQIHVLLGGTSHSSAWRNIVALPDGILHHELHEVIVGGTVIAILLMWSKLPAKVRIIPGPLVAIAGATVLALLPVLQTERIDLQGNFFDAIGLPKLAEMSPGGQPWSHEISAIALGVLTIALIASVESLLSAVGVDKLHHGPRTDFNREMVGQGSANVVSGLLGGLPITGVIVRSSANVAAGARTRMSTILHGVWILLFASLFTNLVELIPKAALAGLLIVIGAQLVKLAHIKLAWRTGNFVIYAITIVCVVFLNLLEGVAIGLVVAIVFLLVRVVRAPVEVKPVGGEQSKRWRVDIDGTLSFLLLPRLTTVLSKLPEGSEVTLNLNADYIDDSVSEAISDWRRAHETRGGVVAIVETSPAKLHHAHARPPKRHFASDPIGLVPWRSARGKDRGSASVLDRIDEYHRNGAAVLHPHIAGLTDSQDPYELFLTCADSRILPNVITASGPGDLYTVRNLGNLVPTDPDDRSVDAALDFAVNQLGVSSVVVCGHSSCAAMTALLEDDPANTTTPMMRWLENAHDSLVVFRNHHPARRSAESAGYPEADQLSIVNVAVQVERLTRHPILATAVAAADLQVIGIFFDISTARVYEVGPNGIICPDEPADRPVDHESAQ
Description: Inhibition of Mycobacterium tuberculosis recombinant Rv3273 beta-carbonic anhydrase after 15 mins by stopped flow CO2 hydration assay

Carbonic anhydrase = biological target: T4, Carbonic anhydrase (Candida albicans (strain SC5314 / ATCC MYA-2876) (Yeast), UniProt Q5AJ71)
T4 sequence (Q5AJ71 whole entry): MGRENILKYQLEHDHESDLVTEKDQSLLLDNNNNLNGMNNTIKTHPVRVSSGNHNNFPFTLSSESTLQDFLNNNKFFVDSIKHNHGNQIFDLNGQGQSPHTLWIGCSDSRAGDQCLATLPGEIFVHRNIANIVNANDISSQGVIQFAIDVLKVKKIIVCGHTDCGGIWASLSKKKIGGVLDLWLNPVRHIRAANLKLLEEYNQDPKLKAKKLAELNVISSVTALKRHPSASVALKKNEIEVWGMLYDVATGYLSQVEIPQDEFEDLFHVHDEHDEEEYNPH
Description: Inhibition of Candida albicans recombinant Nce103 beta-carbonic anhydrase after 15 mins by stopped flow CO2 hydration assay

Carbonic anhydrase 1, sequence (P00915 whole entry): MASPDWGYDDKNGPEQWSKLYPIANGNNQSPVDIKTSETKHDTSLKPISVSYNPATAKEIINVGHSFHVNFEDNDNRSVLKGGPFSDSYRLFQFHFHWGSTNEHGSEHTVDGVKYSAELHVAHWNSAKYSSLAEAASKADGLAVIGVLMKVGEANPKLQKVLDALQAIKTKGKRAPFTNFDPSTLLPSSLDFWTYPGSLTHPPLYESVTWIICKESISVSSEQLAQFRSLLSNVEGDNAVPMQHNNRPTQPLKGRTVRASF

O=C(Cc1ccc(O)c(Cl)c1)NCCc1ccccc1 was tested, and the pKi (Carbonic anhydrase 1) was 5.02, the pKi (Carbonic anhydrase 2 [1]) was 5.01 and the pKi (Carbonic anhydrase 2 [2]) was 6.09. For the same compound, the pKi [3] was 6.10, the pKi [4] was 6.01 and the pKi (Carbonic anhydrase) was 6.03.

For CC1(C)O[C@@H]2[C@@H](CO[C@@]3(COS(N)(=O)=O)OC(C)(C)O[C@@H]23)O1 [TOPIRAMATE], the pKi [4] was 5.52.

O=C(Cc1ccc(O)c(Cl)c1)NCc1ccccc1 gave a pKi (Carbonic anhydrase 1) of 4.98, a pKi (Carbonic anhydrase 2 [1]) of 4.94 and a pKi (Carbonic anhydrase 2 [2]) of 6.14. It also gave a pKi [3] of 4.91, a pKi [4] of 6.01 and a pKi (Carbonic anhydrase) of 6.11.

With NC1=N/C(=C\c2ccc(O)c(O)c2)C(=O)N1 [POLYANDROCARPAMINE B] the pKi (Carbonic anhydrase 2 [2]) was 6.02, the pKi [3] was 6.04 and the pKi [4] was 6.04. It also gave a pKi (Carbonic anhydrase) of 6.05.

With COc1cc(/C=C2\N=C(N)NC2=O)ccc1O [POLYANDROCARPAMINE A] the pKi (Carbonic anhydrase 1) was 4.98, the pKi (Carbonic anhydrase 2 [1]) was 5.02 and the pKi (Carbonic anhydrase 2 [2]) was 6.05. For the same compound, the pKi [3] was 4.93, the pKi [4] was 6.04 and the pKi (Carbonic anhydrase) was 6.04.

For COc1cc(C[C@@H](C)[C@H](C)Cc2ccc(O)c(OC)c2)ccc1O [(-)-DIHYDROGUAIARETICACID], the pKi (Carbonic anhydrase 1) was 3.51, the pKi (Carbonic anhydrase 2 [1]) was 3.64 and the pKi (Carbonic anhydrase 2 [2]) was 6.09. It also gave a pKi [3] of 6.07, a pKi [4] of 5.04 and a pKi (Carbonic anhydrase) of 6.21.

Work on COc1ccc(CCNC(=O)Cc2ccc(O)c(Cl)c2)cc1OC yielded a pKi (Carbonic anhydrase 2 [2]) of 6.07, a pKi [3] of 5.75 and a pKi [4] of 6.05. The pKi (Carbonic anhydrase) was 6.12.

Work on COc1cc(CO)cc2oc3ccc(O)c(C(=O)O)c3c(=O)c12 yielded a pKi (Carbonic anhydrase 2 [2]) of 5.97, a pKi [3] of 6.00 and a pKi [4] of 4.96. For the same compound, the pKi (Carbonic anhydrase) was 6.00.

NC(=O)Cc1ccc(O)cc1 showed a pKi (Carbonic anhydrase 2 [2]) of 6.08, a pKi [3] of 6.07 and a pKi [4] of 5.04. It also gave a pKi (Carbonic anhydrase) of 6.04.

COCCNC(=O)Cc1ccc(O)c(Cl)c1 showed a pKi (Carbonic anhydrase 1) of 3.80, a pKi (Carbonic anhydrase 2 [1]) of 4.98 and a pKi (Carbonic anhydrase 2 [2]) of 6.02. The pKi [3] was 4.96, the pKi [4] was 5.94 and the pKi (Carbonic anhydrase) was 6.00.

For O=C(O)Cc1ccc(O)cc1, the pKi (Carbonic anhydrase 1) was 3.51, the pKi (Carbonic anhydrase 2 [1]) was 4.99 and the pKi (Carbonic anhydrase 2 [2]) was 6.05. The pKi [3] was 4.97, the pKi [4] was 4.94 and the pKi (Carbonic anhydrase) was 5.99.

Compound CCCCNC(=O)Cc1ccc(O)c(Cl)c1 has a pKi (Carbonic anhydrase 1) of 4.97, a pKi (Carbonic anhydrase 2 [1]) of 5.03 and a pKi (Carbonic anhydrase 2 [2]) of 6.14. The pKi [3] was 4.94, the pKi [4] was 4.98 and the pKi (Carbonic anhydrase) was 6.09.

In the case of COC(=O)/C=C/C(=O)N[C@@H](Cc1ccc(O)c(Cl)c1)C(=O)O [(+)-XYLARIAMIDE A], the pKi (Carbonic anhydrase 2 [2]) was 5.95, the pKi [3] was 6.15 and the pKi [4] was 4.96. The pKi (Carbonic anhydrase) was 5.97.
